Assay in all cases: Nanosyn kinase profiling
What all share (format): biochemical
Conditions in all cases: read-out: Percentage inhibition; for inhibition at 0.1 µM: 0.1 µM inhibitor; for inhibition at 1 µM: 1 µM inhibitor

One test concerns the target T1, AKT1 (Homo sapiens, UniProt P31749).
T1 construct: purchased Nanosyn (enzymatic panel); SGC in-house recombinant human kinases (DSF panel); Invitrogen (ALK1-6)
In short, it runs like this:
(§1)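 Percent inhibition of each kinase was measured with the inhibitor at 0.1 µM and at 1 µM, as part of a 200-kinase human selectivity panel.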

The target of another test is T2, MST1 (Homo sapiens, UniProt Q13043).
T2 construct: purchased Nanosyn (enzymatic panel); SGC in-house recombinant human kinases (DSF panel); Invitrogen (ALK1-6)
T2 sequence (Q13043 1-487): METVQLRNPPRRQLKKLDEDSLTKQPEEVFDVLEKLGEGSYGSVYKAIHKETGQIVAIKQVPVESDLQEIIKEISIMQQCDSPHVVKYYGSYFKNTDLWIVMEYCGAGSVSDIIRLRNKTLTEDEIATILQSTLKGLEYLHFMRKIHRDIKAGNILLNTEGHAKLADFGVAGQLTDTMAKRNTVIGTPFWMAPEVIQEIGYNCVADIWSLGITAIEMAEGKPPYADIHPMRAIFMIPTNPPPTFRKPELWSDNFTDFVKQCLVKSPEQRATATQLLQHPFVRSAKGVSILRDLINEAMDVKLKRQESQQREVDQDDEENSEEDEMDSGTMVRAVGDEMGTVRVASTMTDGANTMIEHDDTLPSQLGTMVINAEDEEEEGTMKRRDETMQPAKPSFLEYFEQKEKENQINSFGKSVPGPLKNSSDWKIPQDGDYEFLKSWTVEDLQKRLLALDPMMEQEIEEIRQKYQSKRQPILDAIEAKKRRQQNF
In short, it runs like this:
as §1

The target of a further test is T3, PTK5 (Homo sapiens, UniProt P42685).
T3 construct: purchased Nanosyn (enzymatic panel); SGC in-house recombinant human kinases (DSF panel); Invitrogen (ALK1-6)
In a few lines:
as §1

For a further test, the target named is T4, CDK2/cycE (Homo sapiens, UniProt P24941).
T4 construct: purchased Nanosyn (enzymatic panel); SGC in-house recombinant human kinases (DSF panel); Invitrogen (ALK1-6)
In short, it runs like this: as §1

The next test deals with T5, PI3-K-α (Homo sapiens, UniProt P42336).
T5 construct: purchased Nanosyn (enzymatic panel); SGC in-house recombinant human kinases (DSF panel); Invitrogen (ALK1-6)
In short, it runs like this:
as §1

The target in a further test is T6, IKK-ε (Homo sapiens, UniProt Q14164).
T6 construct: purchased Nanosyn (enzymatic panel); SGC in-house recombinant human kinases (DSF panel); Invitrogen (ALK1-6)
T6 sequence (Q14164 1-716): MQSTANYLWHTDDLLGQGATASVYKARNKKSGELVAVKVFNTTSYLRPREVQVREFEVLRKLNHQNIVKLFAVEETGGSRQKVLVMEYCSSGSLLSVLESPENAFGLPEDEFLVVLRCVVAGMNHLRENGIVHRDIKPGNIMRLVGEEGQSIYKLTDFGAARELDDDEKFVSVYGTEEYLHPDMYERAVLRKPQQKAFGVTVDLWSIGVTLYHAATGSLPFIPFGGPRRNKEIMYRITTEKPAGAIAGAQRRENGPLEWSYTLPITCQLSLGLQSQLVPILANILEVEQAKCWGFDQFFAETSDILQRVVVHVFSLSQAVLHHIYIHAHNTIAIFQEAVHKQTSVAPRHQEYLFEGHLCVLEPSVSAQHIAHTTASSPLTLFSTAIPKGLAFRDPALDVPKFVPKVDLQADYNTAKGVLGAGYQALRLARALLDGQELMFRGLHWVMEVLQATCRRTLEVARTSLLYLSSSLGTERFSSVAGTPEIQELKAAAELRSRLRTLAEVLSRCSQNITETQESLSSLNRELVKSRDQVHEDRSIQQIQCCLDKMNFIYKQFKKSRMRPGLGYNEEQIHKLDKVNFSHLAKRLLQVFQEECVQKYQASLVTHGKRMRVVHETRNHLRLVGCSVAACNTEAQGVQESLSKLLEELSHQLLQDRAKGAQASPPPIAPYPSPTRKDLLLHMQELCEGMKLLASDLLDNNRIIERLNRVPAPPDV
In short, it runs like this:
as §1

For a further test, the target named is T7, IRR (Homo sapiens, UniProt P14616).
T7 construct: purchased Nanosyn (enzymatic panel); SGC in-house recombinant human kinases (DSF panel); Invitrogen (ALK1-6)
In a few lines: as §1

For the next test, the target named is T8, AMPKα1 (Homo sapiens, UniProt Q13131).
T8 construct: purchased Nanosyn (enzymatic panel); SGC in-house recombinant human kinases (DSF panel); Invitrogen (ALK1-6)
In short, it runs like this:
as §1

For the next test, the target named is T9, PRKD3 (Homo sapiens, UniProt O94806).
T9 construct: purchased Nanosyn (enzymatic panel); SGC in-house recombinant human kinases (DSF panel); Invitrogen (ALK1-6)
T9 sequence (O94806 1-890): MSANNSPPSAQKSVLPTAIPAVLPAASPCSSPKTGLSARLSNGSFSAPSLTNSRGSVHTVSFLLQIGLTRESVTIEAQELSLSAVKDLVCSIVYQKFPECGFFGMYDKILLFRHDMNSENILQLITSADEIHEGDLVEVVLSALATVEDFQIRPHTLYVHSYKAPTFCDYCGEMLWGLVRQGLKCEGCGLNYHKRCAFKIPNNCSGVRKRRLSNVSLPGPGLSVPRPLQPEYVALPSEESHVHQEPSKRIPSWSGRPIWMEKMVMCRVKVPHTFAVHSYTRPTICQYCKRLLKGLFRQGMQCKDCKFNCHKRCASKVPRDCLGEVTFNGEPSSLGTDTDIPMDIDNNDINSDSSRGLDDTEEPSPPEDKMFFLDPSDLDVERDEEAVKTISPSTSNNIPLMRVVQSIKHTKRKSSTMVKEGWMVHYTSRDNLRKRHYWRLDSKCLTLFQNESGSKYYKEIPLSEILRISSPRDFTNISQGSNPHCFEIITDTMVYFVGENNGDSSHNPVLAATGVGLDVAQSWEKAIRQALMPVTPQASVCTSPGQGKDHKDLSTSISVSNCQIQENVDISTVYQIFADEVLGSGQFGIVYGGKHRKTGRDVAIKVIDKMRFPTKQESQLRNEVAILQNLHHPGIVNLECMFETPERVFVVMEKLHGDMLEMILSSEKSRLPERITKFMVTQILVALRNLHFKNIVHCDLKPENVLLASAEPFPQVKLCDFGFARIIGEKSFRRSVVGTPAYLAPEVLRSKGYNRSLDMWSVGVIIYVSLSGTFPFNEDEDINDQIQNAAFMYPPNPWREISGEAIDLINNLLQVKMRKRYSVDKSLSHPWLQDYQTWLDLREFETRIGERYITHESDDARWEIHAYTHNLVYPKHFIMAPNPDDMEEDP
In short, it runs like this:
as §1

The target in the next test is T10, LTK (Homo sapiens, UniProt P29376).
T10 construct: purchased Nanosyn (enzymatic panel); SGC in-house recombinant human kinases (DSF panel); Invitrogen (ALK1-6)
In short, it runs like this:
as §1

The structures appear in SMILES notation.

Drawing on paper PMC3639963, “A New Class of Small Molecule Inhibitor of BMP Signaling” (PLoS ONE, 2013), this text covers inhibition for 2 compounds.

T1 sequence (P31749 whole entry): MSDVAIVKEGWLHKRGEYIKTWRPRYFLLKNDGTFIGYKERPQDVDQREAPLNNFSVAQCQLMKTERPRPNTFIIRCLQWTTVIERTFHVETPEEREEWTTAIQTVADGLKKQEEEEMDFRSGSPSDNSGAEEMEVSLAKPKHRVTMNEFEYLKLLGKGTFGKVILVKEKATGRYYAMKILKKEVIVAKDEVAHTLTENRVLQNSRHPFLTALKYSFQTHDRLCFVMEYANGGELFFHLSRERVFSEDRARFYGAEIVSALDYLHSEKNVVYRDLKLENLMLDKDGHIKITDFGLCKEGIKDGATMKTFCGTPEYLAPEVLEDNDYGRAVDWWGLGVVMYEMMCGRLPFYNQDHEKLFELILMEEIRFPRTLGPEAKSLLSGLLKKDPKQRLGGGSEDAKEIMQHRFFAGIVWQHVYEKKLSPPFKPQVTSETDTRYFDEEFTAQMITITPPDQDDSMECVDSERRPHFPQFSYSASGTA
T10 sequence (P29376 17-864): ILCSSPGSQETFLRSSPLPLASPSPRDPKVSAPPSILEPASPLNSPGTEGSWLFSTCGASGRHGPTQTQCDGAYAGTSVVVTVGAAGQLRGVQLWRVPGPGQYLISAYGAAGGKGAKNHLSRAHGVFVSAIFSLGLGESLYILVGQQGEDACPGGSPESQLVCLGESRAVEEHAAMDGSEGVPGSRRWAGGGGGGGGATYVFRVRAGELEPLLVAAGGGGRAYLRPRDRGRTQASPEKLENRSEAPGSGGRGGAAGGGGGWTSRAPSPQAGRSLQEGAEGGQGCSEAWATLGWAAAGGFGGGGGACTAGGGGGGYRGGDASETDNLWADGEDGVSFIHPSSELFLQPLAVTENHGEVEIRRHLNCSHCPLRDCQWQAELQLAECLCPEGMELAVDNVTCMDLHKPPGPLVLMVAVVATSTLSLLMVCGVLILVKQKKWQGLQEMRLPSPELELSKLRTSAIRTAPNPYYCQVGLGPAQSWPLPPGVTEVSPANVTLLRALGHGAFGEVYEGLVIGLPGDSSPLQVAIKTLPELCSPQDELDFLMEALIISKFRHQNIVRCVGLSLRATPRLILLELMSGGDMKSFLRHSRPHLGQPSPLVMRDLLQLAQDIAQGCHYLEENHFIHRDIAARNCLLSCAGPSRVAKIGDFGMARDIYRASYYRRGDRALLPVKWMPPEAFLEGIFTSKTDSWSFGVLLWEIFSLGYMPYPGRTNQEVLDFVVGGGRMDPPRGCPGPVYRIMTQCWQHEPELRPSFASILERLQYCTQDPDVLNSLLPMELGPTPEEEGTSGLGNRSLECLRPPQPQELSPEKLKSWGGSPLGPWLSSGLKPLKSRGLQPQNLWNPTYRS
T8 sequence (Q13131 whole entry): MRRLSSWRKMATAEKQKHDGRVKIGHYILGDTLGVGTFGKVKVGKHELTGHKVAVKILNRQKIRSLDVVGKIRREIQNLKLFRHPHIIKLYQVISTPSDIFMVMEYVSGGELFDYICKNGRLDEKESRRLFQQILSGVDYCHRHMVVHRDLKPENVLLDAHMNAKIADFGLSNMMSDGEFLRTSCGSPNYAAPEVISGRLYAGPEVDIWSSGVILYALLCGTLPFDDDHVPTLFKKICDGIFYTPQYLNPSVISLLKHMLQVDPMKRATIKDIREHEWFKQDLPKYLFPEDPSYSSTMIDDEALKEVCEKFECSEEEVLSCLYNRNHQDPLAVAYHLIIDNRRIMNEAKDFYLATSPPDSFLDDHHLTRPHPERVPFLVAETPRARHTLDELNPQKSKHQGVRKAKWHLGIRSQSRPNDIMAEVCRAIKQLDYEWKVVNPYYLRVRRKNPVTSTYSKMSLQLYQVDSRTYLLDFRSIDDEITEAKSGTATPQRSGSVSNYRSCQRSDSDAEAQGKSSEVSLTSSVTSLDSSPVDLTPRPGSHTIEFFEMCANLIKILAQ
T8 sequence (Q9Y478 whole entry partner): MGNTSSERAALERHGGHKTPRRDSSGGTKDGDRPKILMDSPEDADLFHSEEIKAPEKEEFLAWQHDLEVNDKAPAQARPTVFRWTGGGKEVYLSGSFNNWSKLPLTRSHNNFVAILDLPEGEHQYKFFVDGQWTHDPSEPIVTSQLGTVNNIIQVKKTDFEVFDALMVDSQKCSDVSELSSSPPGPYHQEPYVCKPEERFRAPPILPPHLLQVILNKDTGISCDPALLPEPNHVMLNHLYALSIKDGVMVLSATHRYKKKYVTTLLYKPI
T8 sequence (P54619 whole entry partner): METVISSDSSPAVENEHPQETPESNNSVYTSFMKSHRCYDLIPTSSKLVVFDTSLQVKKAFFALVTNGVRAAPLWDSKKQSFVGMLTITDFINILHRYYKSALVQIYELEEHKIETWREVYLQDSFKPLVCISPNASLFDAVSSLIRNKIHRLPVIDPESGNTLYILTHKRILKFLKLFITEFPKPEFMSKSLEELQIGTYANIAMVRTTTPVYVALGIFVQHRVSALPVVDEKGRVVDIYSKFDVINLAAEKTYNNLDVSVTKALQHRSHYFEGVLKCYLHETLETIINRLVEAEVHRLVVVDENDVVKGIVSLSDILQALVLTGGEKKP
T5 sequence (P42336 whole entry): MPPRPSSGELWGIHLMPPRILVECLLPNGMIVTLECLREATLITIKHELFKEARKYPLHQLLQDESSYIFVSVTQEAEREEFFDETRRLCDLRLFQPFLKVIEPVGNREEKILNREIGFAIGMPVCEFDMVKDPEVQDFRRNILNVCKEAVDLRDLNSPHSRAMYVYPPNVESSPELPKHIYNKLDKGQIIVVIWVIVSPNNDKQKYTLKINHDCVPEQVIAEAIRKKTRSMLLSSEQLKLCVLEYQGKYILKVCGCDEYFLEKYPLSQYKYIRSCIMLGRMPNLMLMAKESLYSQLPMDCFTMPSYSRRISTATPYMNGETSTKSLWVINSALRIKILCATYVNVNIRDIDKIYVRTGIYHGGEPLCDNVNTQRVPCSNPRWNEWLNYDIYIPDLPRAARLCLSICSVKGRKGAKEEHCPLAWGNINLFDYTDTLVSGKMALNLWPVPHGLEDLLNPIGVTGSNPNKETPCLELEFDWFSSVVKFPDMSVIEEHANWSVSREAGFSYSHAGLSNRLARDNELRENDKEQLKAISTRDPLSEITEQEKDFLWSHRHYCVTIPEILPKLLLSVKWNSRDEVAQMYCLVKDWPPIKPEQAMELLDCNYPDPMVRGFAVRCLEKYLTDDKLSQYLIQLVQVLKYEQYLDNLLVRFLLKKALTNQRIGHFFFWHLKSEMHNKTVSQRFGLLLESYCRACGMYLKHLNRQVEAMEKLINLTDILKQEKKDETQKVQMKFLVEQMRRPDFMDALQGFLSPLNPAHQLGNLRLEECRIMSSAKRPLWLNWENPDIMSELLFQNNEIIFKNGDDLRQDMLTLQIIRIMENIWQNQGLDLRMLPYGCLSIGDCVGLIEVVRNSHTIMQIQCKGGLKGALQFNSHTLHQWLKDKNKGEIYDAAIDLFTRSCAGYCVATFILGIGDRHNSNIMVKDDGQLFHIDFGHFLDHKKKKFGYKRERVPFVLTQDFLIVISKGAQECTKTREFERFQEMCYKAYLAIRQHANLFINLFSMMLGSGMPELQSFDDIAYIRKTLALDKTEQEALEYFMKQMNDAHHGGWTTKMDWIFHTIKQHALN
T5 sequence (P27986 whole entry partner): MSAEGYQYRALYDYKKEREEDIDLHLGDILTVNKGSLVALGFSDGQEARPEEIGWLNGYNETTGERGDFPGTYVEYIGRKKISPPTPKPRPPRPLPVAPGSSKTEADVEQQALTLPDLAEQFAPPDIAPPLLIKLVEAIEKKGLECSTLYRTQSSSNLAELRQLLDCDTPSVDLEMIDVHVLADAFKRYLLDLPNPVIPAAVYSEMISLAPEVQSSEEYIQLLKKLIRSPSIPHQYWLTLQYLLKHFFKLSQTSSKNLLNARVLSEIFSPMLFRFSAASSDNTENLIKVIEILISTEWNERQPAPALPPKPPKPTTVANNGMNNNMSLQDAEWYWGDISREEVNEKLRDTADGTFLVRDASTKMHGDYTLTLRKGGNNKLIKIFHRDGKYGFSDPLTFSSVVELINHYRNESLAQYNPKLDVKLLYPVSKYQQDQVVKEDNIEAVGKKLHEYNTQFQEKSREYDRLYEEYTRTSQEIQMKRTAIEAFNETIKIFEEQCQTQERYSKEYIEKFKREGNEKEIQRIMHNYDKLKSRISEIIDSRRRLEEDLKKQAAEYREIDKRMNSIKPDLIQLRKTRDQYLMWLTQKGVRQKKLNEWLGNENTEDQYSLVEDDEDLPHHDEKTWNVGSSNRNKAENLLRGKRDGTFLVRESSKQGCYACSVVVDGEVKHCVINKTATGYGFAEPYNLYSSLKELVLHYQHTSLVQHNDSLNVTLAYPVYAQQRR
T3 sequence (P42685 whole entry): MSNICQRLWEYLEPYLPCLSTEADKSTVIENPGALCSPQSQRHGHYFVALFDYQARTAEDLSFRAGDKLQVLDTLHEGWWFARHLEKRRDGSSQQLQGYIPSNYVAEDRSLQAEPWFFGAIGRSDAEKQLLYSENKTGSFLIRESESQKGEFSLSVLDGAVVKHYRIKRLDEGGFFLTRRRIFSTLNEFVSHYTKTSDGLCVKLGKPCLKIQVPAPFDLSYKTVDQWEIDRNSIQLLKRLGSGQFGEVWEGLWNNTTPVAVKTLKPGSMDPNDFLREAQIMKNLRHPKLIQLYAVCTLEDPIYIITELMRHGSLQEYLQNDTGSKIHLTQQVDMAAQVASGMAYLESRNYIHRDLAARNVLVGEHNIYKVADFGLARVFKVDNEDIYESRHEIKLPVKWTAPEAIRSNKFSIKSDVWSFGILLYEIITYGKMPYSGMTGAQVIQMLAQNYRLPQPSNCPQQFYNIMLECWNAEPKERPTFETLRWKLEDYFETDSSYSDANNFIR

In the case of `COc1cc(-c2cc(-c3cccc(O)c3)cnc2N)cc(OC)c1OC` [K02288, 3-[6-amino-5-(3,4,5-trimethoxy-phenyl)-pyridin-3-yl]-phenol], the inhibition at 0.1 µM is -2% on AKT1; -1% at MST1; 2.2% on PTK5; 0.2% at CDK2/cycE; 2.6% at PI3-K-α; -6% on IKK-ε. Besides, the inhibition at 0.1 µM on IRR was -1%; at AMPKα1, -1%; at PRKD3 it was -1%; on LTK, 3.6%. Moreover, the inhibition at 1 µM on AKT1 was -1%; at MST1, 1.1%; on PTK5, 22%; on CDK2/cycE, 1.5%; at PI3-K-α, 2%; on IKK-ε, -2%. In addition, the inhibition at 1 µM on IRR was -1%; on AMPKα1, 0%; on PRKD3 it was 3.2%; at LTK, 31%.
As to `c1ccc2c(-c3cnn4cc(-c5ccc(N6CCNCC6)cc5)cnc34)ccnc2c1` [LDN-193189], the inhibition at 0.1 µM at AKT1 came out at 0.8%; on MST1, 4%; on PTK5, 4.1%; at CDK2/cycE, 2.8%; on PI3-K-α it was 2.1%; at IKK-ε, 7.5%. Moreover, the inhibition at 0.1 µM worked out at 1.9% at IRR, 5.2% on AMPKα1, 3.2% at PRKD3 and 3.6% on LTK. For the same compound, the inhibition at 1 µM at AKT1 amounted to 1.6%; at MST1, 7.9%; at PTK5 it was 14%; at CDK2/cycE, 5.3%; on PI3-K-α, 1.5%; on IKK-ε it was 7.4%. Besides, the inhibition at 1 µM on IRR turned out to be 2.2%; at AMPKα1, 23%; at PRKD3, 13%; on LTK it was 4%.

A word on the inhibition: it is the relative decrease from the control value, in per cent.
